Laboratory results: patent US20230122967A1, “NOVEL COMPOUNDS AS INHIBITORS OF PCSK9” (SHENGKE PHARMACEUTICALS (JIANGSU) LTD., priority 2020, published 2023)

Tests used:
Format in all cases: cell-based
[1] = test system: PCSK9; assay: PCSK9 ELISA on HepG2 culture medium; settings: HepG2 cells, 24 hr
Description: (§1) HepG2 cells (ATCC, Cat.: HB-8065) were maintained in Growth medium-Eagle's Minimum Essential Medium (Corning, 10-010-CVR), 10% FBS (Gibco, 10099-141), Penicillin (100 units/mL), Streptomycin ([…]). HepG2 cells were incubated at 37° C., 5% CO2. HepG2 cells were plated in flat bottom 96-well plates (Corning, 3599) at 40,000 cells/well in 100 μL of growth media. After an overnight incubation, the culture media were changed to serum-free OptiMEM media (Gibco, 31985-062), 90 μL/well. Vehicle, PF-06446846 hydrochloride, berberine, or test compound was added to the culture media, 10 μL/well. After 24 hr medium was harvested, and 10 μL of the medium were used for the PCSK9 ELISA (R&D Systems, SPC900).

[2] = test system: PCSK9 mRNA; assay: RT-Q-PCR analysis of PCSK9 mRNA in HepG2 cells; settings: Homo sapiens, 24 h, normalized to GAPDH, read-out: HepG2 Q-PCR PCSK9 mRNA level decrease (10 μM)
Description: HepG2 cells (ATCC, Cat.: HB-8065) were maintained in Growth medium-Eagle's Minimum Essential Medium (Corning, 10-010-CVR), 10% FBS (Gibco, 10099-141), Penicillin (100 units/mL), Streptomycin ([…]). HepG2 cells were incubated at 37° C., 5% CO2.
Cells were cultured in growth medium as described above and treated with the vehicle, Berberine or test compound for 24 h. The RNA was extracted using the Total RNA mini Kit (Tiangen, Beijing, China) according to the manufacturer's instructions. Reverse transcription was carried out using the High-Capacity cDNA reverse transcription kit (Thermo Fisher Scientific). Quantitative real-time PCR was performed using a reaction mixture containing cDNA, specific primers [PCSK9, 5′-[…]-3′ (forward) and 5′-[…]-3′ (reverse); GAPDH, 5′-[…]-3′ (forward) and 5′-[…]-3′ (reverse)] and Maxima SYBR Green/ROX qPCR Master Mix (Thermo Fisher Scientific). PCR amplification was carried out in a Real-Time PCR System. The real-time PCR conditions were 37° C. 10 min; 95° C. 10 min; 95° C. 15 s, 60° C. 30 s, 72° C. 30 s, 40 cycle. The amount of % RNA was normalized to the GAPDH level in the same samples.

[3] = test system: HepG2 cells; assay: Cell viability assay (HepG2 Survival assay, CellTiter-Glo); settings: 24 hr, cellular ATP levels
Description: as §1, with “black clear” for “flat”, “3063)” for “3599)”, “cellular ATP levels” for “medium was harvested, and 10 μL of the medium”, “measured using CellTiter-Glo® 2.0 Assay (Promega, G9242).” for “used for the PCSK9 ELISA (R&D Systems, SPC900).”

[4] = test system: HepG2 cells; assay: Measurement of Dil-LDL uptake in HepG2 cells; settings: Homo sapiens, 24 h, 10 μM for 20 h, then 20 μg/mL Dil-LDL 4 h, read-out: LDL uptake 10 μM (fold of vehicle)
Description: HepG2 cells were maintained in MEM supplemented with 10% FBS. The cells were seeded in 96 well black plates at a density of 1×10^4 cells per well and grown to 70-80% confluence. Afterwards, cells were changed to serum-free Opti-MEM for 1 h and followed by incubation with 10 μM Berberine or compounds of the present disclosure for 20 h. Then, 20 μg/mL Dil-LDL was added and incubated at 37° C. in the dark for additional 4 h. Cells were extensively washed three times with PBS, and LDL uptake was determined on a fluorescence plate reader at an excitation wavelength of 520 nm and emission wavelength of 580 nm.

SMILES	HepG2 PCSK9 ELISA (10 μM) % inhibition [1] [%]	inhibition at 10 µM [2] [%]	HepG2 Survival assay (10 μM) [3] [%]	fold induction at 10 µM [4]
CN(C(=O)CN(CC(=O)Nc1ccc(Oc2ccc(F)c(F)c2)cc1)C(=O)c1cc2cccc(F)c2[nH]1)C1CCCC1 [Compound 201-75]	80	90	100	2.92
CC(C)c1ccc(Oc2ccc(NC(=O)CN(CC(=O)NCc3ccccc3)C(=O)c3ccc(C(F)(F)F)o3)cc2)cc1 [Compound 201-245]	76	–	101	1.11
COc1ccc2cc3[n+](cc2c1OC)CCc1cc2c(cc1-3)OCO2 [Berberine, reference compound]	52	35	–	2.54
CN(Cc1ccccc1F)C(=O)CN(CC(=O)Nc1ccc(Oc2ccccc2)cc1)C(=O)c1ccc(C(F)(F)F)o1 [Compound 201-109]	92	90	100	4.69
CC(C)c1ccc(Oc2ccc(NC(=O)CN(CC(=O)Nc3ccccc3)C(=O)c3ccc(C(F)(F)F)[nH]3)cc2)cc1 [Compound 201-265]	71	76	93	1.57
COc1ccc(Oc2ccc(NC(=O)CN(CC(=O)Nc3ccccc3)C(=O)c3cc4cccc(F)c4[nH]3)cc2)cc1 [Compound 201-256]	78	75	109	2.43
CC(C)c1ccc(Oc2ccc(NC(=O)CN(CC(=O)NCc3ccccc3)C(=O)c3cc4cccc(C#N)c4[nH]3)cc2)cc1 [Compound 201-253]	61	59	110	1.77
CC(C)c1ccc(Oc2ccc(NC(=O)CN(CC(=O)NCc3ccccc3)C(=O)c3cc4cccc(F)c4[nH]3)cc2)cc1 [Compound 201-242]	74	77	115	2.43
CN(Cc1ccccc1F)C(=O)CN(CC(=O)Nc1ccc(Oc2ccc(F)c(F)c2)cc1)C(=O)c1ccc(C(F)(F)F)o1 [Compound 201-115]	90	90	100	4.07
N#Cc1cccc2cc(C(=O)N(CC(=O)Nc3ccccc3)CC(=O)Nc3ccc(Oc4ccc(C(F)(F)F)cc4)cc3)[nH]c12 [Compound 201-267]	56	79	103	1.34
CC(C)c1ccc(Oc2ccc(NC(=O)CN(CC(=O)Nc3ccccc3)C(=O)c3cc4cccc(C#N)c4[nH]3)cc2)cc1 [Compound 201-269]	53	87	106	1.34
O=C(CN(CC(=O)Nc1ccc(Oc2ccc(C(F)(F)F)cc2)cc1)C(=O)c1cc2cccc(F)c2[nH]1)NCc1ccccc1 [Compound 201-205]	85	92	90	1.1
CN(C(=O)CN(CC(=O)Nc1ccc(Oc2ccc(F)c(F)c2)cc1)C(=O)c1cc2cccc(F)c2[nH]1)C1Cc2ccccc2C1 [Compound 201-80]	80	88	100	3.07
CN(C(=O)CN(CC(=O)Nc1ccc(Oc2ccccc2)cc1)C(=O)c1cc2cccc(F)c2[nH]1)C1Cc2ccccc2C1 [Compound 201-31]	48	73	100	2.07
CN(C(=O)CN(CC(=O)Nc1ccc(Oc2ccccc2)cc1)C(=O)c1ccc(C(F)(F)F)o1)C1Cc2ccccc2C1 [Compound 201-110]	84	88	100	4.76
CN(C(=O)CN(CC(=O)Nc1ccc(Oc2ccccc2)cc1)C(=O)c1cc2cccc(F)c2[nH]1)C1CCCC1 [Compound 201-70]	76	85	100	1.69
CC(C)c1ccc(Oc2ccc(NC(=O)CN(CC(=O)NC3CCCC3)C(=O)c3cc4cccc(F)c4[nH]3)cc2)cc1 [Compound 201-227]	71	56	112	1.37
CN(C(=O)CN(CC(=O)Nc1ccc(Oc2ccc(F)cc2)cc1)C(=O)c1cc2cccc(F)c2[nH]1)C1Cc2ccccc2C1 [Compound 201-29]	61	88.5	100	3.07
CN(C(=O)CN(CC(=O)Nc1ccc(Oc2ccc(F)c(F)c2)cc1)C(=O)c1ccco1)C1Cc2ccccc2C1 [Compound 201-134]	90	92	100	5.3
CN(C(=O)CN(CC(=O)Nc1ccc(Oc2ccc(F)c(F)c2)cc1)C(=O)c1ccc(C(F)(F)F)o1)C1Cc2ccccc2C1 [Compound 201-116]	81	88	100	3.76
CN(C(=O)CN(CC(=O)Nc1ccc(Oc2ccc(F)cc2)cc1)C(=O)c1cc2cccc(F)c2[nH]1)C1CCCC1 [Compound 201-65]	85	87	100	1.84
O=C(CN(CC(=O)NC1Cc2ccccc2C1)C(=O)c1cc2ccccc2[nH]1)Nc1ccc(Oc2ccccc2)cc1 [Compound 201-11]	38	79.3	100	–
CN(Cc1ccccc1F)C(=O)CN(CC(=O)Nc1ccc(Oc2ccc(F)cc2)cc1)C(=O)c1ccc(C(F)(F)F)o1 [Compound 201-103]	86	85	100	–
CN(Cc1ccccc1F)C(=O)CN(CC(=O)Nc1ccc(Oc2ccccc2)cc1)C(=O)c1cc2cccc(F)c2[nH]1 [Compound 201-74]	77	88	96	3.92
CN(C(=O)CN(CC(=O)Nc1ccc(Oc2ccc(F)cc2)cc1)C(=O)c1ccc(C(F)(F)F)o1)C1Cc2ccccc2C1 [Compound 201-104]	83	86	100	4.15
